The values that follow are results of earlier work, collected in US9631212B2, “Gene cluster for biosynthesis of cornexistin and hydroxycornexistin” (BASF SE, priority 2012, dated 2017).

Like-named read-outs stand apart in the source and are kept apart here.

For data set [1] the following is noted: in vivo.

Consider `C/C=C1/CC2=C(C(=O)OC2=O)[C@H](CCC)[C@H](O)C(=O)C[C@@H]1O` [cornexistin], for which the results for the “activity as a herbicide” value in data set [1] and in data set [1] (listed as Cornexistin) were “highly potent herbicides” and “good activity as a herbicide”, respectively. The “activity towards corn plants” value with corn plants is recorded as “harmless to corn plants”; in the data set on corn plants (listed as Cornexistin), “relative inactivity towards corn plants”.

On to `CCC[C@H]1C2=C(C/C(=C/CO)[C@@H](O)CC(=O)[C@H]1O)C(=O)OC2=O` [hydroxycornexistin], for which the “activity as a herbicide” value in data set [1] is given as “highly potent herbicides”. Further, the “activity towards corn plants” value in the data set with corn plants is reported as “harmless to corn plants”.
